Converted amounts (≈) assume the structure as drawn. Where a SMILES comes first, the peptide text is derived from it. [ ]: non-standard residue; d: D form.
Assays:
[1] = tested on: Enterococcus faecium #2-1; assay: Biofilm inhibition (at least 80%), E. faecium; type: cell-based; conditions: E. faecium #2-1; n = 3; TSB + 1% glucose; 48 hours; crystal violet
Streptococcus salivarius = assay: MIC (broth microdilution) of peptides, S. salivarius; type: cell-based; conditions: mode of three biological replicates
Experimental: (§1) Minimal inhibitory concentration (MIC) against planktonic bacteria: The MIC of the synthetic peptides was determined in Mueller-Hinton broth (MHB) using the broth microdilution method described previously [Wiegand, I., Hilpert, K., & Hancock, R. E. (2008). Agar and broth dilution methods to determine the minimal inhibitory concentration (MIC) of antimicrobial substances. Nature Protocols, 3(2), 163-175]. Briefly, 10 μl of a 10× concentrated peptide solution was placed in the bottom of a well in a 96-well polypropylene round bottom plate (Corning Inc.). A bacterial suspension of ~5×10^5 CFU/ml was prepared from an overnight culture and 90 μl of this was added to each well. […] Bacteria tested included P. aeruginosa PAO1, MRSA USA300 LAC, Staphylococcus haemolyticus, Staphylococcus epidermidis, Klebsiella pneumoniae and Streptococcus salivarius.
(§2) Finally, the AB103-D derivatives that were the least aggregation prone and which produced the lowest toxic effects in vivo were evaluated for their direct antibacterial activity towards several pathogens of clinical relevance using a standard minimum inhibitory concentration (MIC) assay [Wiegand, I., Hilpert, K., & Hancock, R. E. (2008). Agar and broth dilution methods to determine the minimal inhibitory concentration (MIC) of antimicrobial substances. Nature Protocols, 3(2), 163-175]. Specifically, peptides AB110-D, AB111-D, AB114-D and AB115-D were tested against P. aeruginosa PAO1, MRSA USA 300, Staphylococcus haemolyticus, Staphylococcus epidermidis, Klebsiella pneumoniae and Streptococcus salivarius and compared against the antibacterial activity of DJK-5 and AB103-D (Table 7). Overall, the antibacterial potency of all of the AB103-D derivatives was stronger than that seen for DJK-5, particularly in the case of the Gram-negative pathogens P. aeruginosa and K. pneumoniae. […]

P. aeruginosa PAO1 [2] = assay: MIC (broth microdilution) of peptides, P. aeruginosa; type: cell-based, Pseudomonas aeruginosa; conditions: mode of three biological replicates
Experimental: as §1, §2

P. aeruginosa PAO1 [3] = assay: Biofilm inhibition (at least 80%), P. aeruginosa; type: cell-based, Pseudomonas aeruginosa; conditions: n = 4, BM2 minimal media, 18-24 hours, crystal violet
MRSA preformed biofilms = assay: Biofilm eradication of 24-hr preformed biofilms (TTC metabolic dye), MRSA; type: cell-based, methicillin resistant Staphylococcus aureus; conditions: 24-hr preformed biofilms treated overnight
[4] = tested on: P. aeruginosa PAO1 biofilms; conditions: for minimum inhibitory concentration of peptide that inhibited at least 90% of biofilm growth (MBIC90): P. aeruginosa PAO1 biofilms, >95% pure peptides, BM2 minimal media; for minimum inhibitory concentration of peptide that inhibited at least 90% of biofilm growth (MBIC90) / IC50: crystal violet; for IC50: read-out: Biofilm Inhibition IC50, PAO1, 24 hours
[5] = Peptide aggregation in RPMI + 10% FBS with PBMCs (microscopy); type: physicochemical; conditions: 50 μg/ml, overnight
Outline: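 Peptides added to human PBMCs in RPMI with 10% FBS, incubated overnight at 37 °C, 5% CO2; aggregation assessed qualitatively by inverted light microscopy at 10× magnification.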

MRSA USA300 biofilms = assay: Biofilm inhibition by >95% pure peptides (crystal violet), MRSA; type: cell-based, methicillin resistant Staphylococcus aureus; conditions: for minimum inhibitory concentration of peptide that inhibited at least 90% of biofilm growth (MBIC90): MRSA USA300 biofilms, >95% pure peptides, 10% TSB + 0.1% glucose; for IC50: MRSA, 24 hours
E. coli O157:H7 = assay: Biofilm inhibition (at least 80%), E. coli; type: cell-based, Escherichia coli; conditions: n = 3, BM2 minimal media, 18-24 hours, crystal violet
[6] = tested on: Staphylococcus haemolyticus; assay: MIC (broth microdilution) of peptides, S. haemolyticus; type: cell-based; conditions: mode of three biological replicates
Experimental: as §1, §2

Klebsiella pneumoniae = assay: MIC (broth microdilution) of peptides, K. pneumoniae; type: cell-based; conditions: mode of three biological replicates
Experimental: as §1, §2

PAO1 preformed biofilms = conditions: for IC50: read-out: Biofilm Eradication IC50, PAO1, 24-hr preformed biofilms treated overnight, TTC
[7] = tested on: Staphylococcus epidermidis; assay: MIC (broth microdilution) of peptides, S. epidermidis; type: cell-based; conditions: mode of three biological replicates
Experimental: as §1, §2

[8] = tested on: Acinetobacter baumannii Ab5075; assay: Biofilm inhibition (at least 80%), A. baumannii; type: cell-based; conditions: n = 4, BM2 minimal media, 18-24 hours, crystal violet
MRSA USA300 = assay: Biofilm inhibition (at least 80%), MRSA; type: cell-based, methicillin resistant Staphylococcus aureus; conditions: n = 4, 10% TSB + 0.1% glucose, 18-24 hours, crystal violet
P. aeruginosa LESB58 = assay: Murine model of abscess infections; type: in vivo, murine; Pseudomonas aeruginosa

| SMILES | Peptide/Antibiotic Concentration where at least 80% of biofilm growth was inhibited [1] | MIC (Streptococcus salivarius) | MIC (P. aeruginosa PAO1 [2]) | Peptide/Antibiotic Concentration where at least 80% of biofilm growth was inhibited (P. aeruginosa PAO1 [3]) | IC50 (MRSA preformed biofilms) | minimum inhibitory concentration of peptide that inhibited at least 90% of biofilm growth (MBIC90) [4] | IC50 [4] | Peptide aggregation [5] | minimum inhibitory concentration of peptide that inhibited at least 90% of biofilm growth (MBIC90) (MRSA USA300 biofilms) | IC50 (MRSA USA300 biofilms) | Peptide/Antibiotic Concentration where at least 80% of biofilm growth was inhibited (E. coli O157:H7) | MIC [6] | MIC (Klebsiella pneumoniae) | IC50 (PAO1 preformed biofilms) | MIC [7] | Peptide/Antibiotic Concentration where at least 80% of biofilm growth was inhibited [8] | Peptide/Antibiotic Concentration where at least 80% of biofilm growth was inhibited (MRSA USA300) | Decrease in abscess formation (P. aeruginosa LESB58) | further results |
| --- | --- | --- | --- | --- | --- | --- | --- | --- | --- | --- | --- | --- | --- | --- | --- | --- | --- | --- | --- |
| CC[C@@H](C)[C@@H](NC(=O)[C@@H](C)NC(=O)[C@@H](CCCNC(=N)N)NC(=O)[C@@H](Cc1c[nH]c2ccccc12)NC(=O)[C@@H](CCC(N)=O)NC(=O)[C@H](NC(=O)[C@@H](CCCNC(=N)N)NC(=O)[C@H](NC(=O)[C@H](NC(=O)[C@@H](CCCNC(=N)N)NC(=O)[C@H](NC(=O)[C@H](N)CCCNC(=N)N)C(C)C)C(C)C)[C@H](C)CC)C(C)C)C(N)=O [AB103-D, rvrvirvqwrai-NH2] (H-[dR][dV][dR][dV][dI][dR][dV][dQ][dW][dR][dA][dI]-NH2) | 1 µg/mL | 0.8 µg/mL (≈ 0.516 µM) | 2 µg/mL (≈ 1.29 µM) | 2 µg/mL | 2200 nM | 8 µM | 1.9 µM | some small aggregates | 1 µM | 340 nM | 1 µg/mL | 0.8 µg/mL (≈ 0.516 µM) | 0.8 µg/mL (≈ 0.516 µM) | 1700 nM | 0.8 µg/mL (≈ 0.516 µM) | 1 µg/mL | 0.5 µg/mL | 77% | Biofilm inhibition activity compared to DJK5 ([4]; P. aeruginosa): ≥ 4 fold; Enhanced antibiofilm eradication activity (PAO1 preformed biofilms; P. aeruginosa, compared with DJK5): > 2 fold; Abscess size (P. aeruginosa LESB58): reduced abscess size |
| CC[C@@H](C)[C@@H](NC(=O)[C@@H](C)NC(=O)[C@@H](CCCNC(=N)N)NC(=O)[C@@H](Cc1c[nH]c2ccccc12)NC(=O)[C@@H](CCC(N)=O)NC(=O)[C@H](N)C(C)C)C(=O)N[C@H](CCCNC(=N)N)C(=O)N[C@@H](C(=O)N[C@H](CCCNC(=N)N)C(=O)N[C@@H](C(=O)N[C@@H](C(=O)N[C@H](CCCNC(=N)N)C(N)=O)[C@H](C)CC)C(C)C)C(C)C [DJK5, vqwrairvrvir-NH2] (H-[dV][dQ][dW][dR][dA][dI][dR][dV][dR][dV][dI][dR]-NH2) | 1 µg/mL | 0.8 µg/mL (≈ 0.516 µM) | 6 µg/mL (≈ 3.87 µM) | 8 µg/mL | 1600 nM | 16 µM | 7.4 µM | No appreciable aggregation | 0.5 µM | 350 nM | 1 µg/mL | 0.8 µg/mL (≈ 0.516 µM) | 3 µg/mL (≈ 1.93 µM) | 3800 nM | 0.8 µg/mL (≈ 0.516 µM) | 2 µg/mL | 1 µg/mL | 54% | – |

Reference: patent publication US20260374818A1, “CATIONIC PEPTIDES WITH BROAD SPECTRUM ACTIVITY” (priority 2023, published 2026)
